Assay results from patent US20250002450A1, “CATIONIC STEROID COMPOUNDS, METHOD OF OBTAINING THEREOF, FORMULATIONS COMPRISING THEREOF AND THEIR USES” (UNIVERSIDADE DO PORTO, priority 2021, published 2025).

Experiments:
C. albicans ATCC 10231 [1] = test: Time-kill kinetics; assay type: cell-based, Candida albicans
Description: As mentioned for antibacterial activity, time-kill plots allow the evaluation of killing of a microbial isolate over time and establishing how much exposure time is needed in order to achieve a fungicidal effect, which is usually defined by ≥99.9% killing of the initial inoculum and is determined by a 3-log10-unit decrease in CFU/mL. […] Time-kill kinetics of compound 1 were evaluated for C. albicans ATCC 10231.
Determination of killing of C. albicans ATCC 10231 over time was carried out using the time-kill method, as previously described. This assay was performed for concentrations of compound 1 ranging between 64 and 8 μg/mL. Colonies from 24 h cultures in SDA were suspended in sterile saline and adjusted to 0.5 McFarland. An aliquot of this suspension was then added to each tube of RPMI alone (control) or RPMI plus an appropriate amount of compound 1, to give an inoculum of approximately 10^5 CFU/mL in a final volume of 10 mL. Tubes were incubated at 36° C. in a water bath with shaking and vortexed prior to removing each sample for the determination of colony counts. At predetermined time points (30 min, 1, 1.5, 2, 3, 4, 6, 8, and 12 h), 100 μL aliquots were aseptically removed from each tube, serially diluted in sterile saline, and spread on SDA plates. Colony counts were determined following incubation at 36° C. for 24 to 48 h and log10 CFU/mL was plotted against time. At least three independent experiments were performed.

E. coli ATCC 25922 [2] = test: Checkerboard synergy with erythromycin; assay type: cell-based, Escherichia coli; settings: E. coli ATCC 25922
Description: The combined effect of compound 1 and CTX for E. coli SA/2, VAN for E. faecalis B3/101, COL for E. coli 2252, erythromycin for E. coli ATCC 25922, and OXA for S. aureus 66/1 was evaluated by the checkerboard method. […] The interaction between compound 1 and erythromycin was assessed for E. coli ATCC 25922. Gram-negative bacteria are intrinsically resistant to erythromycin, a macrolide that inhibits protein synthesis, and cannot penetrate the outer membrane of Gram-negative bacteria, which is impermeable to hydrophobic antibiotics. Ascertain ceragenins have been previously described to be able to enhance the efficacy of such antibiotics, this possibility was investigated for compound 1 and a FICI of 0.6 was obtained.

C. albicans ATCC 10231 [3] = test: Biofilm formation (crystal violet); assay type: cell-based, Candida albicans; settings: 2×MIC to ¼×MIC (128-16 μg/mL), 48 h
Description: The effect of compound 1 on biofilm formation of C. albicans ATCC 10231 was evaluated through quantification of total biomass by crystal violet staining. […] A control with appropriate concentration of DMSO, as well as a negative control (RPMI alone), were included. Sterile 96-well flat-bottomed untreated polystyrene microtiter plates were used. After a 48 h incubation at 35° C., the biofilms were stained with 1% (v/v) crystal violet for 5 min. The stain was solubilized with 33% (v/v) acetic acid and the biofilm biomass was quantified by measuring the absorbance of each sample at 570 nm in a microplate reader (Thermo Scientific Multiskan® EX, Thermo Fisher Scientific, Waltham, MA, USA). The background absorbance (RPMI without inoculum) was subtracted, and the data are presented as percentage of control. Three independent assays were performed in triplicate for each experimental condition.

E. coli SA/2 (ESBL) = test: Kirby-Bauer disk diffusion; assay type: cell-based; settings: 15 μg per disk
Description: (§1) An initial screening of the antibacterial activity of the compounds was performed by the Kirby-Bauer disk diffusion method, as recommended by the Clinical and Laboratory Standards Institute (CLSI). Briefly, sterile 6 mm blank paper disks (Oxoid, Basingstoke, England) impregnated with 15 μg of each compound were placed on inoculated MH agar plates. A blank disk with dimethylsulfoxide (DMSO) was used as a negative control. MH inoculated plates were incubated for 18-20 h at 37 degrees C. At the end of incubation, the inhibition halos where measured. The MIC was used to determine the antibacterial activity of each compound, in accordance with the recommendations of the CLSI. Two-fold serial dilutions of the compounds were prepared in Mueller-Hinton Broth 2 (MHB2—Sigma-Aldrich, St. Louis, MO, USA) within the concentration range of 0.062-64 μg/mL. CTX ranging between 0.031-16 μg/mL was used as a control. Sterility and growth controls were included in each assay. Purity checks and colony counts of the inoculum suspensions were also performed in order to ensure that the final inoculum density closely approximates the intended number (5×10^5 CFU/mL). The MIC was determined as the lowest concentration of compound that inhibited growth of the bacteria. The MBC was assessed by spreading 10 μL of culture collected from wells showing no visible growth on MH agar plates. […] These assays were performed in duplicate.

[4] = test system: Staphylococcus aureus ATCC 29213; test: Kirby-Bauer disk diffusion; assay type: cell-based; settings: 15 μg per disk
Description: as §1

[5] = test system: Escherichia coli ATCC 25922; test: Kirby-Bauer disk diffusion; assay type: cell-based; settings: 15 μg per disk
Description: as §1

[6] = test system: Pseudomonas aeruginosa ATCC 27853; test: Kirby-Bauer disk diffusion; assay type: cell-based; settings: 15 μg per disk
Description: as §1

E. coli ATCC 25922 [7] = test: Enzymatic/metabolic activity, MTT assay; assay type: cell-based, Escherichia coli
Description: To determine whether compound 1 could also affect enzymatic activity, 2-(4,5-dimethyl-2-thiazolyl)-3,5-diphenyl-2H-tetrazolium bromide (MTT) assay was performed. This assay can also be used as an indirect measure of cellular viability, as tetrazolium salts are reduced to purple formazan by metabolically active cells. E. coli ATCC 25922 cells were treated with compound 1 and COL and AMP were used as controls, as described above. Measurements were made at 0, 1, and 18 h.
Enzymatic activity was evaluated by the MTT assay, as previously described, with some modifications. Cell suspensions of E. coli ATCC 25922 were prepared as described above, as well as test conditions and controls. At each time point (0, 1, and 18 h), 500 μL aliquots were collected, centrifuged at 3500 rpm for 10 min, the supernatant was removed, and 300 μL of MTT solution (0.5 mg/mL in CAMHB, at 36 degrees C.) (Thiazolyl Blue Tetrazolium Bromide, Alfa Aesar, Ward Hill, MA, USA) were added. After a 30 min incubation at 36° C., the insoluble formazan product resulting from the conversion of MTT by metabolically active cells was solubilized with 300 μL of DMSO. 100 μL of each sample were transferred in duplicate to the wells of a microtiter plate and the extent of the reduction of MTT to formazan was quantified by measuring the absorbance at 570 nm (Thermo Scientific Multiskan® EX, Thermo Fisher Scientific, Waltham, MA, USA). Three independent assays were performed in duplicate, and results are expressed as a percentage of untreated control.

C[C@H](CCC(=O)NCCN)[C@H]1CC[C@H]2[C@@H]3CC[C@@H]4C[C@H](O)CC[C@]4(C)[C@H]3C[C@H](O)[C@]12C [Compound 1, (R)—N-(2-aminoethyl)-4-((3R,5R,8R,9S,10S,12S,13R,14S,17R)-3,12-dihydroxy-10,13-dimethylhexadecahydro-1H-cyclopenta[a]phenanthren-17-yl) pentanamida]
exposure time to fungicidal effect (≥99.9% killing) (C. albicans ATCC 10231 [1]; 64 μg/mL (MIC)): approximately 4 h
additional time to produce an additional 1-log10-unit decrease in CFU/mL (C. albicans ATCC 10231 [1]; 64 μg/mL, after the first 2 h): 10 h
decrease in CFU/mL each hour (C. albicans ATCC 10231 [1]; 64 μg/mL, until 2 h of exposure): 1 log10-unit
type of killing (in words) (C. albicans ATCC 10231 [1]; 64-8 μg/mL): concentration-dependent killing
combined effect with erythromycin (in words) (E. coli ATCC 25922 [2]; checkerboard): No synergistic interactions
fractional inhibitory concentration index (FICI) (E. coli ATCC 25922 [2]; with erythromycin): 0.6
biofilm formation (in words) (C. albicans ATCC 10231 [3]): significant inhibition of biofilm formation
Disk diffusion (E. coli SA/2 (ESBL)): 8 mm
Disk diffusion [4]: 13 mm
Disk diffusion [5]: 8 mm
Disk diffusion [6]: 8 mm
metabolic activity (MTT) vs untreated control (E. coli ATCC 25922 [7]; 32 μg/mL, after 1 and 18 h): decrease in enzymatic activity
metabolic activity (MTT) vs untreated control (E. coli ATCC 25922 [7]; 64 μg/mL, 0, 1, 18 h): significantly reduced at all time points
